Data published in BindingDB's records for patent US20240101551 (Chia Tai Tianqing Pharmaceutical Group, 2024).

Target: T1, Bromodomain-containing protein 4 [75-147] (Homo sapiens, UniProt O60885)
T1 construct: 75-147
Experiment: In Vitro Enzymatic Activity Assay
Experimental: In the present application, the IC50 value of the compound of formula (I) in inhibiting BRD4 (BD1) enzyme binding reaction were determined by homogeneous time resolved fluorescence (HTRF). The compound of formula (I) was serially diluted 5-fold with 100% DMSO starting from 0.2 mM (7 concentrations in total), and then 2 μL of the compound of formula (I) at each concentration was added to 48 μL of a reaction buffer (20 mM HEPES pH 7.5, 150 mM NaCl, 5 mM DTT, 0.005 % Tween 20, and 100 μg/mL BSA) for dilution, and mixed well. 2.5 μL of the resulting mixture was added to a 384-well plate (OptiPlate-384, purchased from PerkinElmer), then 5 μL of GST-BRD4 (BD1, 44-168 aa) (final concentration: 1 nM) was added, and the resulting mixture was centrifuged, and fully mixed. 2.5 μL of a short peptide Biotin-AHA-SGRGK(Ac)GGK(Ac)GLGK(Ac)GGAK(Ac) RHRKV (final concentration: 100 nM) was then added to initiate the reaction (total reaction volume: 10 μL). […] After being incubated in the incubator for another 1 hour, the fluorescence values (excited at 320 nm, emitted light at 665 nm and 620 nm being detected, and the ratio of the two being the enzyme binding signal) were read on Envision (purchased from PerkinElmer).

Cn1cc(-c2nc(CS(C)(=O)=O)ccc2Oc2ccc(F)cc2F)c2cc[nH]c2c1=O [US20240101551, Compound of Formula I] showed an IC50 of 640 pM.
